From paper PMC9000871, “Rhodamine 101 Conjugates of Triterpenoic Amides Are of Comparable Cytotoxicity as Their Rhodamine B Analogs” (Molecules, 2022) come the findings set out here.

For series [1], the system named is NIH 3T3 (fibroblasts), non-malignant. The series can be described thus: SRB cytotoxicity assay, NIH 3T3. In kind it is cell-based. The settings on record: Mus musculus, NIH3T3, 72 h, 72 h of treatment, mean ± standard mean error. The text has this:
(§1) The cell lines were obtained from Department of Oncology (Martin-Luther-University Halle Wittenberg; they were bought from ATCC; A 375 (CRL-1619), HT29 (HTB-38), MCF7 (HTM-22), A2780 (HTP-77), FaDu (HTP-43), NIH 3T3 (CRL-1658), HEK-293 (CRL-1573)). Cultures were maintained as monolayers in RPMI 1640 medium with L-glutamine (Capricorn Scientific GmbH, Ebsdorfergrund, Germany) supplemented with 10% heat inactivated fetal bovine serum (Sigma-Aldrich Chemie GmbH, Steinheim, Germany) and penicillin/streptomycin (1%, Capricorn Scientific GmbH, Ebsdorfergrund, Germany) at 37 °C in a humidified atmosphere with 5% CO2. The cytotoxicity of the compounds was evaluated using the sulforhodamine-B (Kiton-Red S, ABCR) micro culture colorimetric assay using confluent cells in 96-well plates with the seeding of the cells on day 0 applying appropriate cell densities to prevent confluence of the cells during the period of the experiment. On day 1, the cells were treated with six different concentrations (1, 3, 7, 12, 20, and 30 μM); thereby, the final concentration of DMSO was always <0.5%, generally regarded as non-toxic to the cells. On day 4, the supernatant medium was discarded; the cells were fixed with 10% trichloroacetic acid. After another day at 4 °C, the cells were washed in a strip washer and dyed with the SRB solution (100 μL, 0.4% in 1% acetic acid) for about 20 min to be followed by washing of the plates (four times, 1% acetic acid) and air-drying overnight. Furthermore, tris base solution (200 μL, 10 mM) was added to each well and absorbance was measured at λ = 570 nm employing a reader (96 wells, Tecan Spectra, Crailsheim, Germany). The EC50 values were averaged from three independent experiments performed each in triplicate calculated from semi logarithmic dose response curves applying a non-linear four-parameter Hills-slope equation (GraphPad Prism5; variables top and bottom were set to 100 and 0, respectively).
For orientation: Sulforhodamine B stains cellular protein and so reports cell mass.

A further series has as its system A375 (melanoma). The series can be described thus: SRB cytotoxicity assay, A375. In kind it is cell-based, human. Particulars: Homo sapiens, A-375, 72 h, 72 h of treatment, mean ± standard mean error.
Description: as §1

The test system of series [2] is HT29 (colon adenocarcinoma). Nature of the series: SRB cytotoxicity assay, HT29. In kind it is cell-based, human. The settings on record: Homo sapiens, HT-29, 72 h, 72 h of treatment, mean ± standard mean error.
Description: as §1

For series [3], the system named is A2780 (ovarian carcinoma). Nature of the series: SRB cytotoxicity assay, A2780. In kind it is cell-based. The settings on record: Homo sapiens, 72 h of treatment, mean ± standard mean error.
Description: as §1

The test system of series [4] is MCF-7 (breast adenocarcinoma). Nature of the series: SRB cytotoxicity assay, MCF-7. Particulars: Homo sapiens, MCF7, 72 h of treatment, mean ± standard mean error. In kind it is cell-based.
Description: as §1

Counter-ions that a name gives are not always drawn. Some results are limits rather than exact numbers.

`CCN(CC)c1ccc2c(-c3ccccc3C(=O)N3CCN(C(=O)[C@]45CCC(C)(C)CC4C4=CCC6[C@@]7(C)CC[C@H](OC(C)=O)C(C)(C)C7CC[C@@]6(C)[C@]4(C)CC5)CC3)c3ccc(=[N+](CC)CC)cc-3oc2c1` (stereo partly drawn) (as salt: chloride) [compound 14, 9-[2-[[4-(3β-Acetyloxy-28-oxo-olean-12-en-28-yl)-1-piperazinyl]carbonyl]phenyl]-3,6-bis(diethylamino)-xanthylium chloride]: the melting point lay in the range of 246 to 252 °C.
Consider `CCN(CC)c1ccc2c(-c3ccccc3C(=O)N3CCCN(C(=O)[C@]45CCC(C)(C)CC4C4=CCC6[C@@]7(C)CC[C@H](OC(C)=O)C(C)(C)C7CC[C@@]6(C)[C@]4(C)CC5)CC3)c3ccc(=[N+](CC)CC)cc-3oc2c1` (stereo partly drawn) [compound 18, 9-[2-[[4-(3β-Acetyloxy-28-oxo-olean-12-en-28-yl]-1-homopiperazinyl]carbonyl]phenyl]-3,6-bis(diethylamino)-xanthylium chloride], for which the EC50 was found to be 140 ± 20 nM in series [1]; 40 ± 10 nM in the series on A375 (melanoma); 40 ± 10 nM in series [2]; 20 ± 3 nM in series [3]; 30 ± 4 nM in series [4].
`CCN(CC)c1ccc2c(-c3ccccc3C(=O)N3CCCN(C(=O)[C@]45CC[C@@H](C(C)=O)C4C4CCC6[C@@]7(C)CC[C@H](OC(C)=O)C(C)(C)C7CC[C@@]6(C)[C@]4(C)CC5)CC3)c3ccc(=[N+](CC)CC)cc-3oc2c1` (stereo partly drawn) [compound 20, 9-[2-[[4-(3β-Acetyloxy-20,28-dioxo-30-norlupan-28-yl)-1-homopiperazinyl]carbonyl]phenyl]-3,6-bis(diethylamino)-xanthylium chloride]: the EC50 was 340 ± 56 nM in series [1]; 240 ± 17 nM in the series with A375 (melanoma); 300 ± 27 nM in series [2]; 120 ± 18 nM in series [3]; 150 ± 50 nM in series [4].
Compound `CC(=O)O[C@H]1CC[C@@]2(C)C(CC[C@]3(C)C2CC=C2C4CC(C)(C)CC[C@]4(C(=O)N4CCCN(C(=O)c5ccccc5C5=c6cc7c8c(c6Oc6c5cc5c9c6CCCN9CCC5)CCC[N+]=8CCC7)CC4)CC[C@]23C)C1(C)C` (stereo partly shown) (as salt: chloride) [compound 26] displayed a melting point of over 300 °C.
Compound `CCN(CC)c1ccc2c(-c3ccccc3C(=O)N3CCN(C(=O)[C@]45CC[C@@H](C)[C@H](C)C4C4=CCC6[C@@]7(C)CC[C@H](OC(C)=O)C(C)(C)C7CC[C@@]6(C)[C@]4(C)CC5)CC3)c3ccc(=[N+](CC)CC)cc-3oc2c1` (stereo partly drawn) (as salt: chloride) [compound 15, 9-[2-[[4-(3β-Acetyloxy-28-oxo-ursan-12-en-28-yl)-1-piperazinyl]carbonyl]phenyl]-3,6-bis(diethylamino)-xanthylium chloride] came in with a melting point of 245 to 251 °C.
For `CCN(CC)c1ccc2c(-c3ccccc3C(=O)N3CCCN(C(=O)[C@]45CC[C@@H](C)[C@H](C)C4C4=CCC6[C@@]7(C)CC[C@H](OC(C)=O)C(C)(C)C7CC[C@@]6(C)[C@]4(C)CC5)CC3)c3ccc(=[N+](CC)CC)cc-3oc2c1` (stereo partly drawn) [compound 19, 9-[2-[[4-(3β-Acetyloxy-28-oxo-urs-12-en-28-yl]-1-homopiperazinyl]carbonyl]phenyl]-3,6-bis(diethylamino)-xanthylium chloride], the EC50 came out at 400 ± 30 nM in series [1]; 510 ± 50 nM in the series with A375 (melanoma); 500 ± 70 nM in series [2]; 450 ± 30 nM in series [3]; 390 ± 40 nM in series [4].
Compound `CCN(CC)c1ccc2c(-c3ccccc3C(=O)N3CCN(C(=O)[C@]45CC[C@@H](C(C)=O)C4C4CCC6[C@@]7(C)CC[C@H](OC(C)=O)C(C)(C)C7CC[C@@]6(C)[C@]4(C)CC5)CC3)c3ccc(=[N+](CC)CC)cc-3oc2c1` (stereo partly drawn) (as salt: chloride) [compound 16, 9-[2-[[4-(3β-Acetyloxy-20,28-dioxo-30-norlupan-28-yl)-1-piperazinyl]carbonyl]phenyl]-3,6-bis(diethylamino)-xanthylium chloride] registered a melting point of 247 to 254 °C.
Still for that read-out and setting: with `CCN(CC)c1ccc2c(-c3ccccc3C(=O)N3CCCN(C(=O)[C@]45CCC(C)(C)CC4C4=CCC6[C@@]7(C)CC[C@H](OC(C)=O)C(C)(C)C7CC[C@@]6(C)[C@]4(C)CC5)CC3)c3ccc(=[N+](CC)CC)cc-3oc2c1` (stereo partly drawn) (as salt: chloride) (hydrate or solvate) [compound 18, 9-[2-[[4-(3β-Acetyloxy-28-oxo-olean-12-en-28-yl]-1-homopiperazinyl]carbonyl]phenyl]-3,6-bis(diethylamino)-xanthylium chloride] the figure was 235 to 241 °C.
For the compound `C=C(C)[C@@H]1CC[C@]2(C(=O)N3CCCNCC3)CC[C@]3(C)C(CCC4[C@@]5(C)CC[C@H](OC(C)=O)C(C)(C)C5CC[C@]43C)C12` (stereo partly drawn) [compound 9, 3β-Acetyloxy-28-(1-homopiperazinyl)-lup-20(29)en-28-one], the EC50 in series [1] is 18700 ± 1600 nM; with A375 (melanoma) it was 18700 ± 1600 nM; in series [2] it was 5100 ± 1100 nM; in series [3], 12000 ± 600 nM; in series [4], 10700 ± 1000 nM.
Take `C=C(C)[C@@H]1CC[C@]2(C(=O)N3CCCN(C(=O)c4ccccc4-c4c5ccc(=[N+](CC)CC)cc-5oc5cc(N(CC)CC)ccc45)CC3)CC[C@]3(C)C(CCC4[C@@]5(C)CC[C@H](OC(C)=O)C(C)(C)C5CC[C@]43C)C12` (stereo partly drawn) [compound 17, 9-[2-[[4-(3β-Acetyloxy-28-oxo-30-norlupan-28-yl)-1-homopiperazinyl]carbonyl]phenyl]-3,6-bis(diethylamino)-xanthylium chloride]: the EC50 in series [1] worked out at 330 ± 70 nM; with A375 (melanoma) it was 760 ± 90 nM; in series [2] it was 280 ± 10 nM; in series [3] it was 220 ± 10 nM; in series [4], 220 ± 20 nM.
Taken in the same sequence, the figures for `C=C(C)[C@@H]1CC[C@]2(C(=O)N3CCNCC3)CC[C@]3(C)C(CCC4[C@@]5(C)CC[C@H](OC(C)=O)C(C)(C)C5CC[C@]43C)C12` (stereo partly drawn) [compound 5, 3β-Acetyloxy-28-(1-piperazinyl)-lup-20(29)en-28-one] were 900 ± 100 nM, 1500 ± 300 nM, 1000 ± 100 nM, 1900 ± 100 nM and 1400 ± 100 nM.
The corresponding values for `CCN(CC)c1ccc2c(-c3ccccc3C(=O)N3CCN(C(=O)[C@]45CCC(C)(C)CC4C4=CCC6[C@@]7(C)CC[C@H](OC(C)=O)C(C)(C)C7CC[C@@]6(C)[C@]4(C)CC5)CC3)c3ccc(=[N+](CC)CC)cc-3oc2c1` (stereo partly drawn) [compound 14, 9-[2-[[4-(3β-Acetyloxy-28-oxo-olean-12-en-28-yl)-1-piperazinyl]carbonyl]phenyl]-3,6-bis(diethylamino)-xanthylium chloride] are 137 ± 6 nM, 90 ± 10 nM, 91 ± 10 nM, 32 ± 1 nM and 62 ± 4 nM.
In the case of `CCN(CC)c1ccc2c(-c3ccccc3C(=O)N3CCN(C(=O)[C@]45CC[C@@H](C(C)=O)C4C4CCC6[C@@]7(C)CC[C@H](OC(C)=O)C(C)(C)C7CC[C@@]6(C)[C@]4(C)CC5)CC3)c3ccc(=[N+](CC)CC)cc-3oc2c1` (stereo partly drawn) [compound 16, 9-[2-[[4-(3β-Acetyloxy-20,28-dioxo-30-norlupan-28-yl)-1-piperazinyl]carbonyl]phenyl]-3,6-bis(diethylamino)-xanthylium chloride], the EC50 in series [1] was 171 ± 6 nM; in the series with A375 (melanoma), 80 ± 30 nM; in series [2], 99 ± 16 nM; in series [3] it was 36 ± 1 nM; in series [4], 70 ± 2 nM.
As to `CCN(CC)c1ccc2c(-c3ccccc3C(=O)N3CCN(C(=O)[C@]45CC[C@@H](C)[C@H](C)C4C4=CCC6[C@@]7(C)CC[C@H](OC(C)=O)C(C)(C)C7CC[C@@]6(C)[C@]4(C)CC5)CC3)c3ccc(=[N+](CC)CC)cc-3oc2c1` (stereo partly drawn) [compound 15, 9-[2-[[4-(3β-Acetyloxy-28-oxo-ursan-12-en-28-yl)-1-piperazinyl]carbonyl]phenyl]-3,6-bis(diethylamino)-xanthylium chloride], the EC50 in series [1] is 137 ± 9 nM; with A375 (melanoma), 40 ± 20 nM; in series [2] it was 83 ± 7 nM; in series [3], 38 ± 2 nM; in series [4], 75 ± 5 nM.
Regarding `C=C(C)[C@@H]1CC[C@]2(C(=O)N3CCN(C(=O)c4ccccc4-c4c5ccc(=[N+](CC)CC)cc-5oc5cc(N(CC)CC)ccc45)CC3)CC[C@]3(C)C(CCC4[C@@]5(C)CC[C@H](OC(C)=O)C(C)(C)C5CC[C@]43C)C12` (stereo partly drawn) [compound 13, 9-[2-[[4-(3β-Acetyloxy-28-oxo-lup-20(29)en-28-yl)-1-piperazinyl]carbonyl]phenyl]-3,6-bis(diethylamino)-xanthylium chloride], the EC50 in series [1] amounted to 208 ± 34 nM; in the series on A375 (melanoma), 90 ± 10 nM; in series [2], 151 ± 22 nM; in series [3], 50 ± 4 nM; in series [4], 81 ± 5 nM.

One may read the melting point as the temperature, or range, at which the solid turns liquid. One may read the EC50 as the concentration at which the effect is half-maximal. High values mean lower potency in that assay, low ones higher potency in that assay.
